From ChEMBL document CHEMBL5465560, “Selectivity Literature for EUbOPEN Chemogenomic Library” (2024) come the findings set out here.

Assay [1] has as its target Serine/threonine-protein kinase PAK 2 (Homo sapiens) (UniProt Q13177). Kind of assay: Selectivity interaction (Ambit KINOMEscan and KiNATiv profiling in Jurkat cells) EUB0000090b PAK2. The conditions noted are these: at 1 µM. Type of assay: cell-based.
Assay [2] addresses Calcium/calmodulin-dependent protein kinase type II subunit beta (Homo sapiens) (UniProt Q13554). Kind of assay: Selectivity interaction (SelectScreen profiling (Invitrogen)) EUB0000607a CAMK2B. To be noted: at 2 µM.
The target in assay [3] is T1, MAP kinase-activated protein kinase 5 (Homo sapiens) (UniProt Q8IW41).
T1 sequence (whole entry): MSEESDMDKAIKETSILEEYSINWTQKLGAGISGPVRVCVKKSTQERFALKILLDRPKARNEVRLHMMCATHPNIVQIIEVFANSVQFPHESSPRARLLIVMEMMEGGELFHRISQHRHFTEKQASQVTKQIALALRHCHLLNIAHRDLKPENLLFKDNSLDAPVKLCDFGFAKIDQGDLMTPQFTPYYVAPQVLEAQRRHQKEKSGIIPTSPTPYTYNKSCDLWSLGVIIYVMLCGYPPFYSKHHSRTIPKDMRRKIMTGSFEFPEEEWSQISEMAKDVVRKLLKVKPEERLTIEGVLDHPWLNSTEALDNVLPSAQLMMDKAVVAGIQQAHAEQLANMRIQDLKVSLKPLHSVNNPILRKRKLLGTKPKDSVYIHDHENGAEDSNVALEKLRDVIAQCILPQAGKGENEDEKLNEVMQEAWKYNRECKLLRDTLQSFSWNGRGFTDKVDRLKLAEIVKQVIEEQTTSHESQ
The conditions noted are these: at 10 µM.

In assay [4] the target is Cyclin-dependent kinase-like 1 (Homo sapiens) (UniProt Q00532). Description: Selectivity interaction (KinomeScan (DiscoverX)) EUB0001079a CDKL1. To be noted: at 1 µM.
Assay [5] is described as follows: Selectivity interaction (KinomeScan (DiscoverX)) EUB0001619a PKNB. To be noted: at 1 µM.
Assay [6] concerns the target T2, Serine/threonine-protein kinase LATS1 (Homo sapiens) (UniProt O95835).
T2 sequence (whole entry): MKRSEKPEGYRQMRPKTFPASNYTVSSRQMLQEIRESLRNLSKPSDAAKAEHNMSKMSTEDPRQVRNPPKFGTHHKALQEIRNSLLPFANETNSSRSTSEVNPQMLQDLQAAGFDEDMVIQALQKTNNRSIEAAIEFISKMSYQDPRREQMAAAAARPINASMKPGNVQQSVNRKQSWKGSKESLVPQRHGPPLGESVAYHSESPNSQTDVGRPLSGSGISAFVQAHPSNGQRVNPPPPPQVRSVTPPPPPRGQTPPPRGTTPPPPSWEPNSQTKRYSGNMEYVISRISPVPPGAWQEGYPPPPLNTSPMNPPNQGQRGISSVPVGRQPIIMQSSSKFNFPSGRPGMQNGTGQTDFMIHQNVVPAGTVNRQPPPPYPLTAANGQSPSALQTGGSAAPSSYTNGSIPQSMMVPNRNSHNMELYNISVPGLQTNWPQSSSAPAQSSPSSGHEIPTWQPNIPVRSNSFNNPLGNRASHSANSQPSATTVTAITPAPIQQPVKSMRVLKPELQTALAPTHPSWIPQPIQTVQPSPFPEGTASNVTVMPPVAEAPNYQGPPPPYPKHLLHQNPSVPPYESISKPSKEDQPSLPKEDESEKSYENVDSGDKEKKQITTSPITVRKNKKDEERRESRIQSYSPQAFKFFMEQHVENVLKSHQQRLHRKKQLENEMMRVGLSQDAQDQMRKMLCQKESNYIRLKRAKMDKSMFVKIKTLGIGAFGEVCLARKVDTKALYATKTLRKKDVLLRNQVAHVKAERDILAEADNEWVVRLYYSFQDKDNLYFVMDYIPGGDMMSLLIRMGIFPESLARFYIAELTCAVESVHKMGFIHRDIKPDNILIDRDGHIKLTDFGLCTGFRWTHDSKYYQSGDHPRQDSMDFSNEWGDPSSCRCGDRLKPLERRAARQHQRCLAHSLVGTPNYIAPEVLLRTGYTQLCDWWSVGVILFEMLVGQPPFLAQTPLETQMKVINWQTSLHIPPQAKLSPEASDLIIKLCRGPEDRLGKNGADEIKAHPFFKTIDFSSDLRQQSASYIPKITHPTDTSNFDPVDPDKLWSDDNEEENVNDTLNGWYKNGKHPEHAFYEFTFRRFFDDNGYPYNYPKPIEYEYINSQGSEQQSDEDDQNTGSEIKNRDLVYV
Description: Selectivity interaction (ActivX KiNativ screen (kinase selectivity in THP-1 cell lysates)) EUB0000639a LATS1. Type of assay: subcellular. To be noted: lysate, at 1 µM.

In assay [7] the target is Serine/threonine-protein kinase SMG1 (Homo sapiens) (UniProt Q96Q15). Kind of assay: Selectivity interaction (ActivX KiNativ screen (kinase selectivity in THP-1 cell lysates)) EUB0000639a SMG1. The conditions noted are these: lysate. The assay is classed as subcellular.
In assay [8] the target is Serine/threonine-protein kinase 26 (Homo sapiens, UniProt Q9P289). Kind of assay: Selectivity interaction (ActivX KiNativ screen (kinase selectivity in THP-1 cell lysates)) EUB0000639a STK26. The assay is classed as subcellular. The conditions noted are these: lysate, at 0.04 µM.
The target in assay [9] is T3, Tyrosine-protein kinase ZAP-70 (Homo sapiens) (UniProt P43403).
T3 sequence (whole entry): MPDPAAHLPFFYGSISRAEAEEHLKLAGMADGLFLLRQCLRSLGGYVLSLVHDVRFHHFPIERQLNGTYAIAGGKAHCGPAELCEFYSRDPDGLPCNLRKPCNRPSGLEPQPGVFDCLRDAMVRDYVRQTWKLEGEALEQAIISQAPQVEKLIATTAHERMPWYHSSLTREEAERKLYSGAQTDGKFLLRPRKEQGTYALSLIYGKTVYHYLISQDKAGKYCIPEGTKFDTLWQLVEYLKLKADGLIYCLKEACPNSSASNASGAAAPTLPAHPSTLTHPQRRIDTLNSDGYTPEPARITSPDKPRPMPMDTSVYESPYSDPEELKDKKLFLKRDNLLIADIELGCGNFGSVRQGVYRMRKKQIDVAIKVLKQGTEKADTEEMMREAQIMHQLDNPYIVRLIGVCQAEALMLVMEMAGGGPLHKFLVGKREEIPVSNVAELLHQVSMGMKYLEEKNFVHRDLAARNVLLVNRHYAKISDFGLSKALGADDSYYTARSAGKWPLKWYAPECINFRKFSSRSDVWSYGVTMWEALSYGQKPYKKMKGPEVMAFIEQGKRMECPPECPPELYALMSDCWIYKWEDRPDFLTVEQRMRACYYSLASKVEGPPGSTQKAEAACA
Kind of assay: Selectivity interaction (KinomeScan (DiscoverX)) EUB0001049a ZAP70. The conditions noted are these: at 1 µM.

Serine/threonine-protein kinase SMG1 (Homo sapiens), sequence (Q96Q15 whole entry): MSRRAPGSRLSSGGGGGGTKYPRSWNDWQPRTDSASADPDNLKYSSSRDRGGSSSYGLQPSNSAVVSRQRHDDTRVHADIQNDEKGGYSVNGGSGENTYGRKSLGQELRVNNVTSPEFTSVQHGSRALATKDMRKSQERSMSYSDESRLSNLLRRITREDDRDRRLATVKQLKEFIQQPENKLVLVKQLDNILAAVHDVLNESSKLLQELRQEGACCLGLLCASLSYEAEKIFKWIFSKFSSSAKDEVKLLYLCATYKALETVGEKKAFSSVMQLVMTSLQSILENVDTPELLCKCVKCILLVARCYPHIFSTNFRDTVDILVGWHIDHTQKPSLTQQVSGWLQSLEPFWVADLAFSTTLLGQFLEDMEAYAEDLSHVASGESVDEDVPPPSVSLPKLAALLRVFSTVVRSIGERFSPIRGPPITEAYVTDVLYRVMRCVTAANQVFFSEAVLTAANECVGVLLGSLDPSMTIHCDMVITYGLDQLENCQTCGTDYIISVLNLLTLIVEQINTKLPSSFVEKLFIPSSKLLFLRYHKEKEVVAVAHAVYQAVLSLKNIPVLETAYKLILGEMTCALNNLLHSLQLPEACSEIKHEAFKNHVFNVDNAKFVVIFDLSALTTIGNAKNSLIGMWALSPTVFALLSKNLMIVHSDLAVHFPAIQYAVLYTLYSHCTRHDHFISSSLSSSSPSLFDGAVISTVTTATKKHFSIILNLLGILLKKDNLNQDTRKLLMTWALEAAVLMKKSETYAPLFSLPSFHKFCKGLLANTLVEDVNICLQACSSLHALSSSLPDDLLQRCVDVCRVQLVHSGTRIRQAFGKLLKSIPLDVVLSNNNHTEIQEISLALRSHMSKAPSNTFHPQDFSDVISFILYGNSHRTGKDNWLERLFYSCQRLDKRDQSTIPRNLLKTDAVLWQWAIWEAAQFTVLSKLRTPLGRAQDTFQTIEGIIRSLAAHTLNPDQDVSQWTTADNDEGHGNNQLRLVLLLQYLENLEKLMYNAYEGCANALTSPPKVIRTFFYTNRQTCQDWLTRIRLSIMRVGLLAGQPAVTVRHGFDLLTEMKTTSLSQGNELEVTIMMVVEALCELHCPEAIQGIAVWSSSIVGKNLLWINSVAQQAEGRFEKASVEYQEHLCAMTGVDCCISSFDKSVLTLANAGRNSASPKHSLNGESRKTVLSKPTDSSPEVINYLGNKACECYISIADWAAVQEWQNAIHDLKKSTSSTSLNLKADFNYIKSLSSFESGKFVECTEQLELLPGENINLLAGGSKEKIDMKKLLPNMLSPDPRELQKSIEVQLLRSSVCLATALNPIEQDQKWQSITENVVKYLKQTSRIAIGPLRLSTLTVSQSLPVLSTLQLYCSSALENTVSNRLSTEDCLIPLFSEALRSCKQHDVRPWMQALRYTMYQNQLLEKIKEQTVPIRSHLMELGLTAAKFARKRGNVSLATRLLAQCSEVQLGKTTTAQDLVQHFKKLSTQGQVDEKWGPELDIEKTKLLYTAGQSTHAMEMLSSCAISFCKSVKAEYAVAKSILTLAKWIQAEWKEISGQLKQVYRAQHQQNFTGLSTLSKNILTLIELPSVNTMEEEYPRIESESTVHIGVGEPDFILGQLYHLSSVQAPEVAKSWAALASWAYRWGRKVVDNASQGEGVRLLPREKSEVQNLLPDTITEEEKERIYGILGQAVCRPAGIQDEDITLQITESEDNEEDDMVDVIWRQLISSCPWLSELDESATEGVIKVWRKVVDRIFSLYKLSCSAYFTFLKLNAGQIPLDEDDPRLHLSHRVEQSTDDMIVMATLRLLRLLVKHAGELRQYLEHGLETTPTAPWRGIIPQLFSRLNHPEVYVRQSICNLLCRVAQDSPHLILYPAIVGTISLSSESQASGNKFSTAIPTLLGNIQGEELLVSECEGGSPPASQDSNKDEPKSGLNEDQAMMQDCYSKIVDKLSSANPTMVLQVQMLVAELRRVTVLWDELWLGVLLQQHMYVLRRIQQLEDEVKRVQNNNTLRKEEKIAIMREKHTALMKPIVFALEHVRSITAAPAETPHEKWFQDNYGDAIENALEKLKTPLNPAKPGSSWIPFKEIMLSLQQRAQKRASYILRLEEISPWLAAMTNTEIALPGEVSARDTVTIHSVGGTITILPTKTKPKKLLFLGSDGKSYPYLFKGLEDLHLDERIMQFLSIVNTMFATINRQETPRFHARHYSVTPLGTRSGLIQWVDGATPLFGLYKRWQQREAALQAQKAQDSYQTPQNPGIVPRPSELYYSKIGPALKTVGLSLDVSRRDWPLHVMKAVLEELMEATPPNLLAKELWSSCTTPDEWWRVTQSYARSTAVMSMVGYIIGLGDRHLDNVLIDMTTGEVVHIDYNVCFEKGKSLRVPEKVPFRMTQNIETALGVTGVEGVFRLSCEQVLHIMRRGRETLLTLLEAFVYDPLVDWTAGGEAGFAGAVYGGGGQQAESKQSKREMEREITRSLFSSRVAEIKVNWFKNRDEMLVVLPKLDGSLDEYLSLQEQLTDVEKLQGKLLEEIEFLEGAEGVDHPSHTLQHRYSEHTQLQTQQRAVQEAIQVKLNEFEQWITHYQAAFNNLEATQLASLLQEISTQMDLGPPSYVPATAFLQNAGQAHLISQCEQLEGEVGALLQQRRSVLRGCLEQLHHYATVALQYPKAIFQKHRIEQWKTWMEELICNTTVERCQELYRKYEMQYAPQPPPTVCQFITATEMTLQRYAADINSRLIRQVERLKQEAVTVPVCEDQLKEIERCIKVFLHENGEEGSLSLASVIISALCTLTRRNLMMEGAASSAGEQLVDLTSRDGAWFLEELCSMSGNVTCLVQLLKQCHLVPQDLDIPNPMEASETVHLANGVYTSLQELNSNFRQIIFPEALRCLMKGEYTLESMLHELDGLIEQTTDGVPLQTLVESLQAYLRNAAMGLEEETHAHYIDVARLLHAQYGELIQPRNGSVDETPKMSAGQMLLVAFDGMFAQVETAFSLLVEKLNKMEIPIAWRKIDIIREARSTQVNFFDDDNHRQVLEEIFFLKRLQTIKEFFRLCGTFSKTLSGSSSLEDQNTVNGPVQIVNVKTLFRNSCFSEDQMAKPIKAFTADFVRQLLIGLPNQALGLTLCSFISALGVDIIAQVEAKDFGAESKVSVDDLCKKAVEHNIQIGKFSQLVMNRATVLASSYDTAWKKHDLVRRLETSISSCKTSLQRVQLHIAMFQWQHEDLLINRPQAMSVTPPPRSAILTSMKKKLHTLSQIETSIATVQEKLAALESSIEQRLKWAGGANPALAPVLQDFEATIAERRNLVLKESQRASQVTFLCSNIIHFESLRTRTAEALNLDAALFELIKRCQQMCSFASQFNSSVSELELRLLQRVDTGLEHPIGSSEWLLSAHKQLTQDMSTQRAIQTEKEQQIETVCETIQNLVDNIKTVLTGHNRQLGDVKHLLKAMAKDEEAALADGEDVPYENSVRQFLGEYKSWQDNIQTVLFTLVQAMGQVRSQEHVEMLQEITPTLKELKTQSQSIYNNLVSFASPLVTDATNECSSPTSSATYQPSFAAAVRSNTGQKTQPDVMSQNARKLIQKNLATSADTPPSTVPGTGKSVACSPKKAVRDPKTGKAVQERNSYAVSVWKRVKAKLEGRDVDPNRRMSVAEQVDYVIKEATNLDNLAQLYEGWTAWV
Serine/threonine-protein kinase 26, sequence (Q9P289 2-416 limits assumed): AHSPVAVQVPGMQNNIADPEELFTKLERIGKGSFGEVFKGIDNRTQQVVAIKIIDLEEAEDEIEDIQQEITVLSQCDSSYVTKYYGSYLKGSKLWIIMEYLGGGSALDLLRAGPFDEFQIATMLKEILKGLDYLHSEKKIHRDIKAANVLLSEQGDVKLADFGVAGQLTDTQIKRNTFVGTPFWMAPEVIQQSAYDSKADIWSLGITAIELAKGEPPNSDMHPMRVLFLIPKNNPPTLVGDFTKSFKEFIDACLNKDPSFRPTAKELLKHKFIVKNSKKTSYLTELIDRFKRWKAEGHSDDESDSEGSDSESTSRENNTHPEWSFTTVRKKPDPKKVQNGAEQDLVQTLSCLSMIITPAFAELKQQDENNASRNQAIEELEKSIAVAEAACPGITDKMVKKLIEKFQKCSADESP
Cyclin-dependent kinase-like 1 (Homo sapiens), sequence (Q00532 whole entry): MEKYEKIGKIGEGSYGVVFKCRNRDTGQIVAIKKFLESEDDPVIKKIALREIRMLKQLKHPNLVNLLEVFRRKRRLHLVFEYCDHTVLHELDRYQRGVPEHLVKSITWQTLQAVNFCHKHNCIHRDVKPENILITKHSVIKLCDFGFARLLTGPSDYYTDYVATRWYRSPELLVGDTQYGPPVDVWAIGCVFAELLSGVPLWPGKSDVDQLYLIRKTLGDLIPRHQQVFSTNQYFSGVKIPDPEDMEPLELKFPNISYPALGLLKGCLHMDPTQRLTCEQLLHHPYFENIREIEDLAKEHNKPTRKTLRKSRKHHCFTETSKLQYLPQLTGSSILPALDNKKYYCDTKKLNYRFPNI
Serine/threonine-protein kinase PAK 2 (Homo sapiens), sequence (Q13177 whole entry): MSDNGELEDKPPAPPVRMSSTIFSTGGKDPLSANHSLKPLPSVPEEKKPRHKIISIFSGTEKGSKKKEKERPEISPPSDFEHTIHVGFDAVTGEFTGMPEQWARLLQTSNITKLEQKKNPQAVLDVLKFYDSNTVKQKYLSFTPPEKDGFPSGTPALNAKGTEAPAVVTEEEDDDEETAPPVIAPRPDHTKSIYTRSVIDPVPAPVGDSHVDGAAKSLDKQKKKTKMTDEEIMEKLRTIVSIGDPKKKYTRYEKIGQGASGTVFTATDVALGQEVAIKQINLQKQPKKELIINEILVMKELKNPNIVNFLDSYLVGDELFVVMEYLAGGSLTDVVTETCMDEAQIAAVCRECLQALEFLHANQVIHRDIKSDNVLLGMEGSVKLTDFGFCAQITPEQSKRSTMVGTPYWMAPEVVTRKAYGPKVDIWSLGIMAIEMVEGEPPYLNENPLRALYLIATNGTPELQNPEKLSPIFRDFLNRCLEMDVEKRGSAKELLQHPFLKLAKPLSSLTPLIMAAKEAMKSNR

Compound `CN(C)C/C=C/C(=O)Nc1ccc(C(=O)N2CCCC(Nc3ncc(Cl)c(-c4c[nH]c5ccccc45)n3)C2)cc1` (stereo not drawn) gave a % of control in assay [1] of 84%.

For the compound `CNC(=O)Nc1ccc(-c2nc(N3CC4CCC(C3)O4)c3cnn(C4CCC5(CC4)OCCO5)c3n2)cc1`, in [2], the % of inhibition is 8%.

The compound `Cc1cc([C@@H](C)Nc2ccccc2C(=O)O)c2nc(N3CCOCC3)cc(=O)n2c1` [AZD-6482] displayed a % of control in [3] of 100%.

`Nc1cnc(N2CCc3cc(S(=O)(=O)Nc4c(F)cc(Cl)cc4F)cc(N4CCCC4=O)c32)nc1` [TP-020n]: the % of control in assay [4] amounted to 85%.

In assay [5], `N#Cc1cccc(-c2c[nH]c3ncnc(N4CCOCC4)c23)c1` came in with a % of control of 47%.

Regarding `CC[C@@H]1[C@H](F)C(=O)N[C@@H]1COc1nccc2cc(C(N)=O)c(OC)cc12` [ZIMLOVISERTIB], the % of inhibition is -107% in assay [6]; 7.7% in assay [7] (at 0.01 µM); 1.9% in [7] (at 0.04 µM); 6.9% in [7] (at 0.2 µM); 6.1% in assay [7] (at 1 µM); -13.6% in assay [7] (at 5 µM). For the same compound, the % of inhibition in assay [8] was -3.8%.

For `COc1cc(Nc2nc(C)cc(-c3cnn4nc(OC)ccc34)n2)cc(C(F)(F)F)c1`, in [9], the % of control worked out at 95%.
